The text below walks through data of ChEMBL document CHEMBL2413011, “One-pot tandem Hurtley-retro-Claisen-cyclisation reactions in the synthesis of 3-substituted analogues of 5-aminoisoquinolin-1-one (5-AIQ), a water-soluble inhibitor of PARPs” (Bioorg Med Chem, 2013).

Sequence of Poly [ADP-ribose] polymerase 2 (O88554 whole entry): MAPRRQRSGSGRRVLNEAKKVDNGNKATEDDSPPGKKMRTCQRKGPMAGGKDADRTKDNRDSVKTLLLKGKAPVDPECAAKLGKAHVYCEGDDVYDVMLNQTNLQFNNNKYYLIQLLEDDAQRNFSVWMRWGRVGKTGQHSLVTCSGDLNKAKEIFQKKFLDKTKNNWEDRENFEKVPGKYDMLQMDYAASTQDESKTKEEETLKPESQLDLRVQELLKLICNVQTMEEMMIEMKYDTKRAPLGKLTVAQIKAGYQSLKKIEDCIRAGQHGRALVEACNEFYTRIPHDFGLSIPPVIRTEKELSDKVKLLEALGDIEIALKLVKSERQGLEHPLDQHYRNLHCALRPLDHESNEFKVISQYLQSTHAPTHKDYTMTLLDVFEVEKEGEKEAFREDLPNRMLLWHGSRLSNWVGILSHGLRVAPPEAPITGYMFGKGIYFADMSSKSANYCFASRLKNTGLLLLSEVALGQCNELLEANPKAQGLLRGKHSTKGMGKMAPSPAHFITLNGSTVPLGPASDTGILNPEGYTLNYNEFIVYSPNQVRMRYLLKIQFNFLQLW
Sequence of Poly [ADP-ribose] polymerase 1 (Bos taurus, UniProt P18493) (P18493 whole entry): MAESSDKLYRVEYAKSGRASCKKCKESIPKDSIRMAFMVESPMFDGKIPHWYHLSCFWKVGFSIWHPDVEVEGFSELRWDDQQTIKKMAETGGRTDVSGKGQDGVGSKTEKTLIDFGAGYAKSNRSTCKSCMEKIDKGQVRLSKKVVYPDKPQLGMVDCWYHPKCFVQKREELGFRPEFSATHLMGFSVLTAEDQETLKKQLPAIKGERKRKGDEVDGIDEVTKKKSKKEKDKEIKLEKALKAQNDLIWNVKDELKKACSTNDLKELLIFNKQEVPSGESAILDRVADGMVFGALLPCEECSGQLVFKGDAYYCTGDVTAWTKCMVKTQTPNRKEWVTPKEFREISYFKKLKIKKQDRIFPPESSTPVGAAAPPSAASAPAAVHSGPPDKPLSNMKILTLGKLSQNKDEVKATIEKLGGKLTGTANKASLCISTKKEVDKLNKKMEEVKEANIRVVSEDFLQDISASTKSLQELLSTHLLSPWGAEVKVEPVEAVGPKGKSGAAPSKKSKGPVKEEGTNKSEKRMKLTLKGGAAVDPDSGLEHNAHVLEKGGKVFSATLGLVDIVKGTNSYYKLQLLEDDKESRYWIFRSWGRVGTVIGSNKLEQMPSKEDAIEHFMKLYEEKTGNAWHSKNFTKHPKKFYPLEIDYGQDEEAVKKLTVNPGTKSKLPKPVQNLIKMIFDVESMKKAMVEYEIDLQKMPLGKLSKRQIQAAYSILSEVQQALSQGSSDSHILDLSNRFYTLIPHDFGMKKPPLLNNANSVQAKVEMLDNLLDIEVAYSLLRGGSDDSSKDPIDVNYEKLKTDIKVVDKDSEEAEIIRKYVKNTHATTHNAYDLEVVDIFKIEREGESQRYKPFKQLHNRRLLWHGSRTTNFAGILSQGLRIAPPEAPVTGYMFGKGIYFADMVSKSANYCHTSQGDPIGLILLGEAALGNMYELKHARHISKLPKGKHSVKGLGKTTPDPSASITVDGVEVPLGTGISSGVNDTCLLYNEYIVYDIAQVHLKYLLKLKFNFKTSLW

Test system in the first data set: not listed separately
In words: Solubility of the compound in water. The class given is physicochemical.
In general, solubility refers to how much of the substance goes into solution per volume. As to `Cl.Nc1cccc2c(=O)[nH]c(-c3ccc(C(F)(F)F)cc3)cc12`, the solubility is > 30 mM. On to `Cl.Nc1cccc2c(=O)[nH]c(-c3ccccc3)cc12`, for which the solubility was > 30 mM. Consider `Cc1ccc(-c2cc3c(N)cccc3c(=O)[nH]2)cc1.Cl`, for which the solubility was > 30 mM. With `COc1ccc(-c2cc3c(N)cccc3c(=O)[nH]2)cc1.Cl`, the solubility is > 30 mM. For `Cl.Nc1cccc2c(=O)[nH]c(-c3ccc(Cl)cc3)cc12`, the solubility was > 30 mM. Same read-out and setting: the value for `Cl.Nc1cccc2c(=O)[nH]c(-c3cccs3)cc12` was > 30 mM; that for `Cc1cc2c(N)cccc2c(=O)[nH]1.Cl` was > 30 mM; that for `CCCCCc1cc2c(N)cccc2c(=O)[nH]1.Cl` was > 30 mM.

For the compound `Cl.Nc1cccc2c(=O)[nH]c(Cc3ccccc3)cc12`, the solubility was > 30 mM.

`CCc1cc2c(N)cccc2c(=O)[nH]1.Cl`: the solubility is > 30 mM. Same read-out and setting: in the case of `CC(C)Cc1cc2c(N)cccc2c(=O)[nH]1.Cl` it was > 30 mM.

In another data set the target is T1, Poly [ADP-ribose] polymerase 1 (Homo sapiens, UniProt P09874). In words: Inhibition of human PARP-1 assessed as synthesis of [3H]-ADP-ribose polymers from [3H]-NAD+ by scintillation proximity assay. In general terms: SPA uses beads or plates that emit light when radiolabelled molecules are held near them.
T1 sequence (P09874 whole entry): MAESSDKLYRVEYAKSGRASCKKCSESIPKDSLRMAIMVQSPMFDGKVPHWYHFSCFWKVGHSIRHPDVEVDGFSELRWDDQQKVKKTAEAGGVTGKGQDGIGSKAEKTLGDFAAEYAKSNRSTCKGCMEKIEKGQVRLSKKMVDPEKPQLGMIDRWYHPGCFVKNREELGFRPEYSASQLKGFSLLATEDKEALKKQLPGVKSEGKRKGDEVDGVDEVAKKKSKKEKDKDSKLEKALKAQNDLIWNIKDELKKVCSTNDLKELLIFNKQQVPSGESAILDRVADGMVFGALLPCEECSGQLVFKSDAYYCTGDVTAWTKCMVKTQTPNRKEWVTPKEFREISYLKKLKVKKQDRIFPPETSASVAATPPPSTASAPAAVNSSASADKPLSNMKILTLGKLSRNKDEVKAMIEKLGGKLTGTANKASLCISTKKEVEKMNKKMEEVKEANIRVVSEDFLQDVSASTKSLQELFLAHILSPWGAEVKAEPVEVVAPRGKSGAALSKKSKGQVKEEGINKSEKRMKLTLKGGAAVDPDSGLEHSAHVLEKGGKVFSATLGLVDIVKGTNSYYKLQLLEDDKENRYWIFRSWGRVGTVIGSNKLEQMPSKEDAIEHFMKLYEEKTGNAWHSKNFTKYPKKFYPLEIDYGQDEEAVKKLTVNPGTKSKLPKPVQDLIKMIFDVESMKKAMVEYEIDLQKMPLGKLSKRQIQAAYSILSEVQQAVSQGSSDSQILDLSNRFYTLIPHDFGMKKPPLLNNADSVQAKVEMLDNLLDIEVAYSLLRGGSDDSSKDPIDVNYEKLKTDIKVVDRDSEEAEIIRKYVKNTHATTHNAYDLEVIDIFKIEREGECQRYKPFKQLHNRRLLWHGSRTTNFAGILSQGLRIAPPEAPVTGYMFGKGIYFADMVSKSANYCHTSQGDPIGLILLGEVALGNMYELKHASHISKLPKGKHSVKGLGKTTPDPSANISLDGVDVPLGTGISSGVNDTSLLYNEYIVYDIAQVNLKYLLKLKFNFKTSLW
What is called IC50 is the concentration that gives 50% inhibition. For `Nc1cccc2c(=O)[nH]ccc12`, the IC50 was found to be 1.6 µM.

The next data set deals with T1, Poly [ADP-ribose] polymerase 1. In words: Inhibition of PARP-1 (unknown origin) in broken nuclear preparation.
On to `Nc1cccc2c(=O)[nH]ccc12`, for which the IC50 amounted to 0.3 µM.

A further data set addresses Poly [ADP-ribose] polymerase 2 (Mus musculus, UniProt O88554). In words: Inhibition of mouse PARP-2.
`Nc1cccc2c(=O)[nH]c(-c3ccc(C(F)(F)F)cc3)cc12` returned an IC50 of 0.17 µM.

Consider `Nc1cccc2c(=O)[nH]c(-c3ccccc3)cc12`, for which the 50% inhibitory concentration (IC50) came out at 0.48 µM. In turn, `Cc1ccc(-c2cc3c(N)cccc3c(=O)[nH]2)cc1` came in with an IC50 of 0.12 µM. Compound `COc1ccc(-c2cc3c(N)cccc3c(=O)[nH]2)cc1` gave an IC50 of 0.73 µM. `Nc1cccc2c(=O)[nH]c(-c3ccc(Cl)cc3)cc12` had an IC50 of 0.16 µM. On to `Cc1cc2c(N)cccc2c(=O)[nH]1`, for which half-maximal inhibition (IC50) was put at 0.26 µM.

Compound `CCc1cc2c(N)cccc2c(=O)[nH]1` displayed an IC50 of 0.83 µM.

A further data set concerns the target Poly [ADP-ribose] polymerase 1 (Bos taurus, UniProt P18493). In words: Inhibition of calf thymus PARP-1.
`Nc1cccc2c(=O)[nH]ccc12`: the IC50 amounted to 0.25 µM.
